Experimental data taken from ChEMBL document CHEMBL5370580, “Discovery of three-dimensional bicyclo[3.3.1]nonanols as novel heat shock protein 90 inhibitors” (Bioorg Med Chem, 2023).
Active and inactive are the calls of the source. The calls are words filed in the database; no cut-off is given here.

What was measured:
[1] = Inhibition of HIF-1 mediated gene transcription activity in human HeLa cells co-expressing HRE dependent firefly luciferase reporter gene pre-incubated for 1 hrs followed by incubation at hypoxic condition for 12 hrs by luciferase reporter gene assay; format: cell-based
[2] = system: HeLa; assay: Effect on HIF-1alpha mRNA expression in human HeLa cells at 1 to 100 uM pre-incubated for 1 hr followed by incubation at hypoxic condition for 12 hrs by semi-quantitative RT-PCR assay; format: functional, cell-based; settings: dose 1-100 µM, time 13.0 hrs
[3] = biological target: T1, Heat shock factor protein 1 (Homo sapiens) (UniProt Q00613); assay: Activation of HSF1 in human HeLa cells assessed as increase in HSP70 mRNA expression at 100 uM measured after 12 hrs by Real-time PCR assay; format: cell-based
T1 sequence (whole entry): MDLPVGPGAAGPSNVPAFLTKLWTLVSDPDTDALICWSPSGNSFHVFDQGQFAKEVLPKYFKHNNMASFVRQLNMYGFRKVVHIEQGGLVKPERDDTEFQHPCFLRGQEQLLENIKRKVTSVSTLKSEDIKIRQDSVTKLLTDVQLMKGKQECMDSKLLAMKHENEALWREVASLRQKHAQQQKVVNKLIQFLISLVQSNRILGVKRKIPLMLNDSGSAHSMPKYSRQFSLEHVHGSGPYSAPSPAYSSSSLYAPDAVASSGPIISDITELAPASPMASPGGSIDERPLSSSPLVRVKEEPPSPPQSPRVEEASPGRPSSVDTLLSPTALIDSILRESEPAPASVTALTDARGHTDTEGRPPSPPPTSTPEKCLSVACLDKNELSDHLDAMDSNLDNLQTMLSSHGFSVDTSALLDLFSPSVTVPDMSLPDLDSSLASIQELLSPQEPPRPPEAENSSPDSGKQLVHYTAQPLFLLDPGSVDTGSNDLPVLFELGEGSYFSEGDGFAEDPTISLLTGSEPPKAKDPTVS

[4] = system: HeLa; assay: Effect on HSP70 protein expression in human HeLa cells at 30 to 100 uM measured after 24 hrs by Western blot analysis; format: functional, cell-based; settings: dose 30-100 µM
[5] = biological target: T1, Heat shock factor protein 1 (Homo sapiens); assay: Activation of HSF1 in human HeLa cells assessed as increase in HSP47 mRNA expression at 100 uM measured after 12 hrs by Real-time PCR assay; format: cell-based
[6] = biological target: T2, Heat shock protein HSP90 (Homo sapiens, UniProt P07900+P08238); assay: Inhibition of HSP90 in human HeLa cells assessed as reduction in p70s6k phosphorylation at 30 to 100 uM measured after 12 hrs by Western blot analysis; format: cell-based; settings: dose 30-100 µM
[7] = Effect on HSF1 protein expression in human HeLa cells assessed as fold change at 100 uM measured after 24 hrs by immunoblotting analysis (reference value: 1); format: functional
[8] = biological target: T2, Heat shock protein HSP90; assay: Inhibition of recombinant human HSP90 ATPase activity expressed in Escherichia coli BL21 incubated for 3 hrs in presence of ATP by malachite green dye based microplate reader analysis
[9] = biological target: Hypoxia-inducible factor 1-alpha (Homo sapiens) (UniProt Q16665); assay: Induction of HIF-1alpha degradation in human HeLa cells assessed as reduction in HIF-1alpha accumulation upto 100 uM incubated for 12 hrs under hypoxia condition by Western blot analysis; format: cell-based
Chain of Hypoxia-inducible factor 1-alpha (Homo sapiens) (Q16665 whole entry, looked up): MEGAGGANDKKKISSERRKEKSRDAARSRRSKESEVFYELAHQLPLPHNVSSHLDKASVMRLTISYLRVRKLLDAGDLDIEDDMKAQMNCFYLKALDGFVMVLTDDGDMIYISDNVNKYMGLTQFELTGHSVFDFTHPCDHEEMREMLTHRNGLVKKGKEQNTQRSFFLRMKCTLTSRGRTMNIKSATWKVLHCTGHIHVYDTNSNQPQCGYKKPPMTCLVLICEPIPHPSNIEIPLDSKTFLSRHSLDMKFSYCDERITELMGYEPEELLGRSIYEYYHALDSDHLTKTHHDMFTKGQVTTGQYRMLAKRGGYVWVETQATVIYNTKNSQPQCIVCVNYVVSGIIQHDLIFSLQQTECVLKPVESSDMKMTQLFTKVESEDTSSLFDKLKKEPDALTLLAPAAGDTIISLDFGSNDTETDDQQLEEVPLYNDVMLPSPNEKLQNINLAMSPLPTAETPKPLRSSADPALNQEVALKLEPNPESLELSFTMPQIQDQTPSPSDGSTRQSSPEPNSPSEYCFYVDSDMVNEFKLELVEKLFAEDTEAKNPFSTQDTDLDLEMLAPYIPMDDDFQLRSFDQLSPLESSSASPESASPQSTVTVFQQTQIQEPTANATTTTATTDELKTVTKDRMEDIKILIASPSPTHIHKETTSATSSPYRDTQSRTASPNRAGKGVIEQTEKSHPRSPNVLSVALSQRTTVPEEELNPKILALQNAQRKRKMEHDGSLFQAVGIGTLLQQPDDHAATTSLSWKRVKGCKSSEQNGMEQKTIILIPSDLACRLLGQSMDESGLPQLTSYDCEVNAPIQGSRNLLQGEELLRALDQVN

[10] = biological target: T1, Heat shock factor protein 1 (Homo sapiens); assay: Activation of HSF1 in human HeLa cells assessed as increase in HSP27 mRNA expression at 100 uM measured after 12 hrs by Real-time PCR assay; format: cell-based
[11] = Inhibition of recombinant luciferase (unknown origin) incubated for 10 mins by luminescence based microplate reader analysis
[12] = biological target: T2, Heat shock protein HSP90; assay: Inhibition of recombinant human HSP90 expressed in Escherichia coli BL21 assessed as increase in DTT induced insulin aggregation by measuring increase in absorbance at 100 uM pre-incubated for 1 hrs followed by DTT addition by microplate reader analysis
[13] = system: HeLa; assay: Effect on HSP90 protein expression in human HeLa cells at 30 to 100 uM measured after 24 hrs by Western blot analysis; format: functional, cell-based; settings: dose 30-100 µM
[14] = biological target: T2, Heat shock protein HSP90; assay: Inhibition of HSP90 in human HeLa cells assessed as reduction in AKT phosphorylation at 30 to 100 uM measured after 12 hrs by Western blot analysis; format: cell-based; settings: dose 30-100 µM
[15] = system: HeLa; assay: Anticancer activity against human HeLa cells assessed as cell growth inhibition measured after 72 hrs by MTT assay; format: functional, cell-based
[16] = system: HeLa; assay: Effect on HIF-1alpha mRNA expression in human HeLa cells at 100 uM pre-incubated for 1 hr followed by incubation at hypoxic condition for 12 hrs by RT-PCR assay; format: functional, cell-based; settings: time 13.0 hrs
[17] = Effect on CDK4 protein expression in human HeLa cells assessed as fold change at 100 uM measured after 24 hrs by immunoblotting analysis (reference value: 1); format: functional
[18] = biological target: Hypoxia-inducible factor 1-alpha (Homo sapiens) (UniProt Q16665); assay: Induction of HIF-1alpha degradation in human HeLa cells assessed as reduction in CA9 protein expression upto 100 uM incubated for 12 hrs under hypoxia condition by Western blot analysis; format: cell-based
[19] = Effect on HSP90 protein expression in human HeLa cells assessed as fold change at 100 uM measured after 24 hrs by immunoblotting analysis (reference value: 1); format: functional
[20] = Effect on HSP70 protein expression in human HeLa cells assessed as fold change at 100 uM measured after 24 hrs by immunoblotting analysis (reference value: 1); format: functional
[21] = system: HeLa; assay: Effect on CA9 mRNA expression in human HeLa cells at 100 uM pre-incubated for 1 hr followed by incubation at hypoxic condition for 12 hrs by RT-PCR assay; format: functional, cell-based; settings: time 13.0 hrs
[22] = biological target: T2, Heat shock protein HSP90; assay: Inhibition of HSP90 in human HeLa cells assessed as reduction in CDK4 protein expression at 30 to 100 uM measured after 24 hrs by Western blot analysis; format: cell-based; settings: dose 30-100 µM
[23] = system: HeLa; assay: Effect on CA9 mRNA expression in human HeLa cells at 1 to 100 uM pre-incubated for 1 hr followed by incubation at hypoxic condition for 12 hrs by semi-quantitative RT-PCR assay; format: functional, cell-based; settings: dose 1-100 µM, time 13.0 hrs
[24] = Downregulation of p-AKT protein expression in human Hela cells assessed as fold change at 100 uM measured after 24 hrs by immunoblotting analysis (reference value: 1); format: functional
[25] = biological target: T2, Heat shock protein HSP90; assay: Inhibition of HSP90 in human HeLa cells assessed as reduction in ERK phosphorylation at 30 to 100 uM measured after 12 hrs by Western blot analysis; format: cell-based; settings: dose 30-100 µM
[26] = Effect on HSP90 protein expression in human HeLa cells assessed as fold change at 10 uM measured after 24 hrs by immunoblotting analysis (reference value: 1); format: functional
[27] = biological target: T1, Heat shock factor protein 1 (Homo sapiens); assay: Activation of HSF1 in human HeLa cells assessed as increase in HSP27 mRNA expression at 10 uM measured after 12 hrs by Real-time PCR assay; format: cell-based; settings: filed as activator
[28] = Effect on HSP70 protein expression in human HeLa cells assessed as fold change at 10 uM measured after 24 hrs by immunoblotting analysis (reference value: 1); format: functional
[29] = Effect on HSF1 protein expression in human HeLa cells assessed as fold change at 10 uM measured after 24 hrs by immunoblotting analysis (reference value: 1); format: functional
[30] = biological target: T1, Heat shock factor protein 1 (Homo sapiens); assay: Activation of HSF1 in human HeLa cells assessed as increase in HSP70 mRNA expression at 10 uM measured after 12 hrs by Real-time PCR assay; format: cell-based; settings: filed as activator
[31] = Downregulation of CDK4 protein expression in human Hela cells assessed as fold change at 10 uM measured after 24 hrs by immunoblotting analysis (reference value: 1); format: functional
[32] = Downregulation of p-AKT protein expression in human Hela cells assessed as fold change at 10 uM measured after 24 hrs by immunoblotting analysis (reference value: 1); format: functional
[33] = biological target: T1, Heat shock factor protein 1 (Homo sapiens); assay: Activation of HSF1 in human HeLa cells assessed as increase in HSP47 mRNA expression at 10 uM measured after 12 hrs by Real-time PCR assay; format: cell-based; settings: filed as activator

Compound	IC50 [1] [µM]	Activity [2]	Activity [3]	Activity [4]	Activity [5]	inhibition [6]	fold change (FC) [7]	Activity [9]	Activity [10]	inhibition [11]	inhibition [12]	Activity [13]	inhibition [14]	IC50 [15] [µM]	Activity [16]	fold change (FC) [17]	Activity [18]	fold change (FC) [19]	fold change (FC) [20]	Activity [21]	also measured
CC(C)COC(=O)C1=C(O)[C@H](C(=O)OCC(C)C)[C@@]2(O)[C@H](C(=O)OCC(C)C)[C@H](C)C[C@H]1[C@@H]2C(=O)O	50.6	inactive	inactive	inactive	inactive	Active	0.98	Active	inactive	Active	inactive	inactive	Active	18.8	inactive	0.6	Active	0.96	0.99	Active	IC50 [8]: 95 µM; inhibition [22]: Active; Activity [23]: Active; fold change (FC) [24]: 0.51; inhibition [25]: Active
CCCC[C@@H]1C[C@@H]2C(C(=O)OC)=C(O)[C@H](C(=O)OC)[C@@](O)([C@@H]1C(=O)OC)[C@H]2C(=O)O	> 100													44.8							
CCCC[C@@H]1C[C@@H]2C(C(=O)OCC(C)C)=C(O)[C@H](C(=O)OCC(C)C)[C@@](O)([C@@H]1C(=O)OCC(C)C)[C@H]2C(=O)OCC(C)C	> 100													72.7							
COC1=C2C[C@@H](C)C[C@H](OC)[C@H](O)[C@@H](C)/C=C(\C)[C@H](OC(N)=O)[C@@H](OC)/C=C\C=C(/C)C(=O)NC(=CC1=O)C2=O [GELDANAMYCIN]																					fold change (FC) [26]: 0.93; Activity [27]: Active; fold change (FC) [28]: 1.96; fold change (FC) [29]: 1.06; Activity [30]: Active; fold change (FC) [31]: 0.71; fold change (FC) [32]: 0.7; Activity [33]: Active
CCCC[C@@H]1C[C@@H]2C(C(=O)OCC(C)C)=C(O)[C@H](C(=O)OC)[C@@](O)([C@@H]1C(=O)OC)[C@H]2C(=O)O	70.4	inactive	inactive	inactive	inactive	Active	1.02	Active	inactive	Active	inactive	inactive	Active	40.1	inactive	0.78	Active	0.97	0.95	Active	inhibition [22]: Active; Activity [23]: Active; fold change (FC) [24]: 0.82; inhibition [25]: Active
CCCC[C@@H]1C[C@@H]2C(C(=O)OCC(C)C)=C(O)[C@H](C(=O)OC)[C@@](O)([C@@H]1C(=O)OCC(C)C)[C@H]2C(=O)O	> 100													22.6							
CCCC[C@@H]1C[C@@H]2C(C(=O)OCC(C)C)=C(O)[C@H](C(=O)OCC(C)C)[C@@](O)([C@@H]1C(=O)OCC(C)C)[C@H]2C(=O)O	36.3	inactive	inactive	inactive	inactive	Active	0.9	Active	inactive	Active	inactive	inactive	Active	18.6	inactive	0.52	Active	0.95	0.97	Active	IC50 [8]: 45.8 µM; inhibition [22]: Active; Activity [23]: Active; inhibition [25]: Active
COC(=O)C1=C(O)[C@H](C(=O)OC)[C@@]2(O)[C@H](C(=O)OC)[C@H](C)C[C@H]1[C@@H]2C(=O)O	> 100													> 100							
